1 molecule from patent US12616713B2, “Methods for enhancing vascular density” (priority 2016, dated 2026) can be followed below.

The test system of one test is SIRT1. The test is described as follows: SIRT1 protein levels in HUVECs (Western blot). To be noted: NaHS 0.1 mM and/or NMN 0.5 mM. Format: cell-based, human. Here is the method: SDS-PAGE and Western blot analysis were performed according to standard procedures and detected with the ECL detection kit (Bio-rad, Australia). For Western blot analysis antibodies directed against SIRT1 (Sigma), SIRT3 (CST), SIRT6 (SantaCruz), eNOS (Cell Signaling Technology or CST), cleaved Notch1 (CST), total OXPHOS cocktail (Abcam), PGC-1α (Millipore), VEGF (Abcam), VEGFR2 (Abcam), phospho-VEGFR2 (Millipore), Actin (Cell Signaling Technology), Tubulin (Sigma), 14-3-3 (Cell Signaling Technology), GAPDH (SantaCruz) were used. Quantification of band intensities by densitometry was carried out using ImageJ software.

Test [1] concerns MLECs from WT and ESKO mice. The test is described as follows: Spheroid sprouting assay, MLECs. It counts as cell-based, mouse. The following applies: WT versus ESKO MLECs, C2C12 CM, NMN 0.5 mM. Here is the method: ECs spheroids were generated as described previously (Korff and Augustin, 1998, J Cell Biol 143, 1341-1352). ECs (1000 cells per spheroid) were suspended in EGM-2 medium containing 20% methocel (viscosity: 4000 cps, Sigma) and seeded in non-adherent round-bottom 96-well plates (Sigma). Under these conditions all suspended cells contributed to the formation of a single spheroid. The spheroids were harvested after 24 h embedded into collagen gels. Sprouting was initiated by adding C2C12 CM or EBM-2 medium containing VEGF (50 ng/mL). NMN (0.5 mM), NaHS (0.1 mM), DAPT (20 μM, Cayman Chemical) or SU5416 (10 μM, Sigma) were added to the media wherever mentioned. Angiogenic activity was quantified by measuring the sprout length that had grown out of each spheroid analyzing 8-10 spheroids per group.

In test [2] the test system is MLECs from WT and ESKO mice. The test can be described thus: Apoptosis of serum-starved MLECs (Annexin V/PI). The following applies: serum-starved overnight, SIRT1-dependent. Format: cell-based, mouse. Here is the method:
FIG. 38 is (A) a graph showing quantification of the relative cell number (n=12) of HUVECs incubated with PBS or NMN (0.5 mM) for 48 h in complete growth medium and cell number determined using flow cytometry. (B) a graph showing the number of apoptotic cells (Annexin V+/PI−) (n=12) when MLECs from WT and ESKO mice were serum-starved overnight, then assessed for apoptosis by Annexin V/PI staining and analyzed using flow cytometry. Data are expressed as mean±SEM. *p<0.05, **p<0.005, ***p<0.0005, ^δp<0.00005 by Student's t test (A), or two-way (B) ANOVA with Bonferroni's Multiple Comparisons Tests. (C) a schematic diagram of a model of how SIRT1 promotes sprouting angiogenesis. […]
HUVECs were treated with PBS (vehicle), NaHS (100 μM), NMN (500 μM) or NMN+NaHS for 6 h, followed by exposure to H2O2 (600 μM) for another 4 h. After treatments, the number of apoptotic cells was determined using Annexin V-FITC apoptosis detection kit (eBioscience) as per manufacturer's instructions. […] After mixing gently, the fluorescence intensity was detected with a flow cytometry (FACSCanto II Analyzer, BD Biosciences) at emission at 530 nm and 575 nm and excitation at 488 nm. Annexin-V and PI staining were detected with a flow cytometry (FACSCanto II Analyzer, BD Biosciences) at emission at 530 nm and 575 nm and excitation at 488 run.

For another test, the system named is C57BL/6J mice. The test can be described thus: TUNEL and CD31 co-staining of quadriceps capillaries. Format: in vivo, mouse. To be noted: aged quadriceps tissue, four weeks treatment; untreated 42%. The procedure: Freshly isolated whole quadriceps and gastrocnemius muscle samples were mounted in OCT compound (Tissue-Tek), placed in an isopentane bath and slowly cooled in liquid nitrogen. Transverse sections at 20 μm-thickness were sectioned on a cryostat (Leica). The sections were fixed in pre-cooled acetone (−20° C.) for 10 min and washed with PBS. Slides were then blocked in normal goat serum and 5% Blocking Reagent (PerkinElmer) in PBST (PBS with 0.1% Triton-X) for 1 h at room temperature, and then incubated with anti-CD31 (ab56299, Abcam) and anti-Laminin (L9393, Sigma), GFP (ab6556, Abcam) or SIRT1 (HPA006295, Sigma) antibodies diluted in blocking buffer overnight at 4° C. Slides were washed with PBST and then incubated with anti-rat Alexa Fluor 488-conjugated (Life Technologies) and anti-rabbit Alexa Fluor 594-conjugated (Life Technologies) antibodies diluted to 1:500 in blocking buffer for 2 h at room temperature. Slides were washed again with PBST and mounted with Fluoroshield with DAPI mounting medium (Sigma). Images were acquired using a confocal fluorescence microscope (Nikon A1). Quantification of capillaries and capillary density were performed using ImageJ software. TUNEL staining was performed in muscle sections using in situ BrdU-Red DNA fragmentation (TUNEL) assay kit (Abcam) as per manufacturer's protocol.

For the next test, the system named is HUVECs. The test is described as follows: Tube formation assay, HUVECs after H2O2. It counts as cell-based, human. To be noted: H2O2 150 μM 1 h, NMN 500 μM 10 h. Here is the method:
Formation of tube networks was assessed as described before (Borradaile and Pickering, 2009, Aging Cell 8, 100-112). ECs were seeded at 10,000 cells per well in a 24-well plate (Corning) coated with 150 μL Cultrex reduced growth factor basement membrane extract (Trevigen). The cells were supplemented with C2C12 CM or EBM-2 medium containing VEGF (30 ng/mL) or FGF (30 ng/mL). NMN (0.5 mM) and NaHS (0.1 mM) were added to the media wherever mentioned. Following an 18 h-incubation, resulting tube networks were analyzed by light microscopy (Nikon Eclipse TiE). For tube formation assays with H2O2 treatment, cells were incubated with 150 μM H2O2 for 1 h before seeding and imaged after 10 h-incubation. The number of branch points and total length of tubule networks were quantified by ImageJ software.

With `NC(=O)c1ccc[n+]([C@@H]2O[C@H](COP(=O)([O-])O)[C@@H](O)[C@H]2O)c1` [NMN, nicotinamide mononucleotide], the SIRT1 protein levels result with SIRT1 is given as “increased SIRT1 protein levels”. The “ability of NMN to stimulate spheroid sprouting, dependence on SIRT1” value in test [1] is “SIRT1-dependent”. In addition, the “apoptosis in ECs (Annexin V+/PI-)” value in test [2] is on record as “reduced apoptosis”. Also, the “number of capillaries with apoptotic cells” value in the test with C57BL/6J mice stood at 17%. For the same molecule, the “VEGF mediated angiogenesis (tube formation) after treatment with H2O2” value with HUVECs is “promoted VEGF mediated angiogenesis”.
